Source: US8389739B1, “Modulators of retinoid-related orphan receptor gamma” (Orphagen Pharmaceuticals, priority 2006, dated 2013)
“Also recorded” adds a separate entry of the source. Where two headings read alike, the source gives them in different places.

Columns and labels:
[1] = test system: human IL-17 release from PBMCs; assay: Human IL-17 release from Con A stimulated PBMCs (ELISA); assay type: cell-based; settings: 1 μg/ml Con A, 3 days; for reversal of antagonist effect on IL-17 release by agonist: 3 μM each; for Con A stimulated IL-17 release into culture medium: 3 μM
Excerpt: We also investigated whether human IL-17 is subject to regulation by RORγ ligands.

[2] = test system: TH-17 cell differentiation from naïve CD4+ T cells; assay: Differentiation of naïve CD4+ T cells, intracellular IL-17/IFN-γ staining by FACS (TH-17 protocol, TGFβ + IL-6); assay type: cell-based, mouse; settings: for Cell Frequency (%) Th-17 Differentiation IFN-γ^+ / Cell Frequency (%) Th-17 Differentiation IL-17^+: Table 11, 3 μM; for Cell Frequency (%) Th-17 Differentiation IFN-γ^+: DMSO vehicle 1.03%; for Cell Frequency (%) Th-17 Differentiation IL-17^+: DMSO vehicle 3.81%
[3] = target: T1, hRXRα (retinoid X receptor alpha) (Homo sapiens, UniProt P19793); assay: Crossreactive receptor transcriptional assay (Gal4 hybrid); assay type: cell-based
T1 construct: 203-462; expressed in transfected cells; host or cells: CHO cells, transient transfection
T1 sequence (P19793 203-462): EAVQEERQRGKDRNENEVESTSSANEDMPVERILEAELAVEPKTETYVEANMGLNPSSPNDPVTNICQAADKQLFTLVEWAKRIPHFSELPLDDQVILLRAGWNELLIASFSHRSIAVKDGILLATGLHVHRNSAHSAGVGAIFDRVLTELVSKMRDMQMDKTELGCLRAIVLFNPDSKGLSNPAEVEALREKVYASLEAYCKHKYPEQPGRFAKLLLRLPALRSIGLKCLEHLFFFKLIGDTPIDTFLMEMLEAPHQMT

hPPARδ = target: T2, hPPARδ (Homo sapiens, UniProt Q03181); assay: as above; assay type: cell-based
T2 construct: 138-441; expressed in transfected cells; host or cells: CHO cells, transient transfection
T2 sequence (Q03181 138-441): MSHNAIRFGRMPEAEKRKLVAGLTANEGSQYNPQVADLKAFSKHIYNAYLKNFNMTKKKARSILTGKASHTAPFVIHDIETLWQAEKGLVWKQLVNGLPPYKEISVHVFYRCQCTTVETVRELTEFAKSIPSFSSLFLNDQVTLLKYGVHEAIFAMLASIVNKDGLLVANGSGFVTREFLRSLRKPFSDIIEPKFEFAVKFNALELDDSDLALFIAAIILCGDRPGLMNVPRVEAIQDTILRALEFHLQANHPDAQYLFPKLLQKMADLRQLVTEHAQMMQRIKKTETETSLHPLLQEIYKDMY

[4] = target: T3, hRARα (retinoic acid receptor alpha) (Homo sapiens, UniProt P10276); assay: as above; assay type: cell-based
T3 construct: 156-462; expressed in transfected cells; host or cells: CHO cells, transient transfection
T3 sequence (P10276 156-462): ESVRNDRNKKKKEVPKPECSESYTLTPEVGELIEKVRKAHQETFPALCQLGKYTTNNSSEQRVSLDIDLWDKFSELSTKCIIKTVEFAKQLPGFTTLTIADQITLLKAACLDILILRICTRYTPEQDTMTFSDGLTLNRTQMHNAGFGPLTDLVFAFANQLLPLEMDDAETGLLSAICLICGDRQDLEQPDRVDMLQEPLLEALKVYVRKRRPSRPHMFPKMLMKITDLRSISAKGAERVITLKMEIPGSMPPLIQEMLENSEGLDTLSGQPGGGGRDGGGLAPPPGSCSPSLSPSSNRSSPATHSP

[5] = test system: IL-22 release in lymph node cultures; assay: Lymph node cell cultures from MOG-immunized C57BL/6 mice, IL-22 ELISA; assay type: cell-based
Procedure: FIGS. 15A-B. IL-22 release in lymph node cultures is regulated by RORγ ligands. Lymph node cells from MOG-immunized C57BL/6 mice were cultured for 3 days with 30 μg/ml MOG, […] IL-23 (FIG. 15A) and 3 μM compounds (FIG. 15B). Culture media were analyzed by IL-22 ELISA.
ELISA kits for mouse IL-17 and human IL-17 were from eBioscience (San Diego, Calif.). ELISA assays were performed following the manufacturer's protocol. Certain samples were diluted 20-fold to avoid maximization of enzymatic signals. For mouse IL-22 ELISA, antibodies and standards were from Antigenix America (Huntington Station, N.Y.) and accessory components were from eBioscience. The IL-22 assay protocol was similar to that of the IL-17 assays.
The proinflammatory cytokine IL-22 is also expressed in Th-17 cells. […] In addition, IL-22 seems to have 30-50 fold higher levels than IL-17. […] This is illustrated in FIG. 15.

human RORγ = target: T4, human RORγ (Homo sapiens, UniProt P51449); assay: Transcriptional assay of human RORγ (Gal4-hRORγ); assay type: cell-based; settings: Table 4B
T4 construct: expressed in transfected cells; host or cells: CHO cells, transient transfection
T4 sequence (P51449 253-518): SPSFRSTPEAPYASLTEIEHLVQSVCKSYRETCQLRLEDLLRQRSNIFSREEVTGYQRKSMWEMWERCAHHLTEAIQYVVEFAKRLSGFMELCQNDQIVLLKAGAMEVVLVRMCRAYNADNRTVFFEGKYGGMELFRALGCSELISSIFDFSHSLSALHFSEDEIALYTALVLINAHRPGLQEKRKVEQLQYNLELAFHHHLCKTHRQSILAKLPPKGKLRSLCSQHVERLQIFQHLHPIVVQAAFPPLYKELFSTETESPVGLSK
Procedure: The complete Gal4-hRORγ nucleotide sequence is shown below:
A firefly luciferase reporter gene for Gal4 DBD hybrid receptors, such as Gal4-RORγ, contains five copies of the Gal4 17-mer response element in its promoter and the coding sequence for firefly luciferase (pG5-luc, Promega). CHO (Chinese Hamster Ovary) cells were cultured in Ham's F12 medium supplemented with 10% fetal calf serum (Gemini Biologicals), 10 μg/ml penicillin and streptomycin, and were maintained in a humidified 37° C. incubator (Thermo Electron, Steri-Cycle) with 5% CO2. 24 hours before transfection, cells were plated in T175 flasks (5×10^6 cells/flask) or T75 flasks (1.7×10^6 cells/flask). Transient transfection of CHO cells was performed using TransIT-CHO reagents (Minis, Madison, Wis.) with a mixing ratio of 2:6:1 between plasmid DNA (in μg), TransIT-CHO (in μl) and CHO-mojo (in μl).
Plates are maintained at 37° C. in a humidified atmosphere with 7% CO2 overnight. Four (4) hours after cell seeding, compounds dissolved in DMSO at 10 mM were added to cells at final concentrations of 20 micromolar (μM) to 20 nanomolar (nM) in 0.2% DMSO in triplicate plates. Approximately 40 hours later, cytotoxicity in the assay well was characterized by addition of the dye resazurin (O'Brien, Wilson et al. 2000) to a final concentration of 3 μM. […] Percent viability was determined as 2 hour fluorescence, minus background at t=0 hours, normalized to DMSO controls. For detection of luciferase activity, media was removed from plates after the measurement of resazurin conversion, and SteadyLite luciferase reagent (Perkin-Elmer) was added (30 μl/well). Luminescence is detected with a Victor 2-V plate reader (Perkin-Elmer) and normalized to luciferase activity of DMSO control wells alone.

[6] = Table 9, 3 μM (combination 3 μM each), 4 ng/ml TGFβ and 20 ng/ml IL-6, DMSO 2.32%
[7] = Table 9, 3 μM (combination 3 μM each), DMSO 1.60%
[8] = Table 6, read-out: Potency (EC50) at hRXRα
[9] = Table 6, RORγ ligands: no significant activity at 20 μM, read-out: Potency (EC50) at hPPARδ
[10] = Table 6, read-out: Potency (EC50) at hRARα

SMILES	Con A stimulated IL-17 release into culture medium [1]	effect on TH-17 cell differentiation [2]	EC50 [3, 8]	EC50 (hPPARδ; [9])	EC50 [4, 10]	EC50 (human RORγ)	also measured
COC(C)CCC(C)C1CCC2C3CC(O)C4CC(O)CCC4(C)C3CCC12C (centres unmarked) [OR-12872, 17-(4-Methoxy-1-methyl-pentyl)-10,13-dimethyl-hexadecahydro-cyclopenta[a]phenanthrene-3,6-diol]	does not significantly alter IL-17 release	stimulatory; also recorded: able to reverse the effect of OR-1050; also recorded: increases the fraction of IL-17^+ cells	> 10 µM	> 10 µM	> 10 µM	–	reversal of antagonist effect on IL-17 release by agonist [1]: partly reverse the effects of OR-1050 and OR-13571; elevation of TH-17 frequency by agonist alone ([2]; 3 μM (FIG. 8)): 60%; increase of TH-17 frequency from the lower baseline produced by OR-1050 ([2]; 3 μM agonist in the presence of 3 μM OR-1050 (FIG. 8)): 400%; Cell Frequency (%) TH-17 Protocol IL-17^+ [2, 6]: 3.91%; Cell Frequency (%) TH-17 Protocol IFN-γ^+ [2, 7]: 1.37%; Cell Frequency (%) TH-17 Protocol IFN-γ^+ ([2]; Table 10, 1 μM, DMSO vehicle 0.71%): 0.65%; Cell Frequency (%) TH-17 Protocol IL-17^+ ([2]; Table 10, 1 μM, DMSO vehicle 2.46%): 3.96%; IL-22 production in LN cultures ([5]; 3 μM each (FIG. 15)): enhanced
CCN(c1ccc(C(O)(C(F)(F)F)C(F)(F)F)cc1)S(=O)(=O)c1ccc([N+](=O)[O-])cc1 [OR-1050, N-Ethyl-4-nitro-N-[4-(2,2,2-trifluoro-1-hydroxy-1-trifluoromethyl-ethyl)-phenyl]-benzenesulfonamide]	inhibited	significantly inhibited TH-17 cell differentiation in a dose-dependent manner; also recorded: decreases the proportion of IL-17^+ cells	> 10 µM	> 10 µM	> 10 µM	0.4 µM	Cell Frequency (%) TH-17 Protocol IL-17^+ [2, 6]: 0.44%; Cell Frequency (%) TH-17 Protocol IFN-γ^+ [2, 7]: 1.42%; Cell Frequency (%) Th-17 Differentiation IFN-γ^+ [2]: 1.09%; Cell Frequency (%) Th-17 Differentiation IL-17^+ [2]: 1.47%; IL-22 production in LN cultures ([5]; 3 μM each (FIG. 15)): inhibited
CCn1c(CNc2ccc(Cl)cc2)nnc1SCC(=O)Nc1cccc2ccccc12 [OR-133008, 2-{5-[(4-Chloro-phenylamino)-methyl]-4-ethyl-4H-[1,2,4]triazol-3-ylsulfanyl}-N-naphthalen-1-yl-acetamide]	–	–	> 10 µM	> 10 µM	> 10 µM	6.8 µM	–
CC(=O)O[C@H]1CC[C@@]2(C)C(CC[C@]3(C)C2C(=O)C=C2C4[C@@H](C)[C@H](C)CC[C@]4(C(=O)O)CC[C@]23C)C1(C)C (stereo in doubt) [OR-13571, 10-Acetoxy-1,2,6a,6b,9,9,12a-heptamethyl-13-oxo-1,3,4,5,6,6a,6b,7,8,8a,9,10,11,12,12a,12b,13,14b-octadecahydro-2H-picene-4a-carboxylic acid]	inhibited	exerted a similar effect on TH-17 differentiation as OR-885 and OR-1050; also recorded: inhibits TH-17 differentiation	> 10 µM	> 10 µM	> 10 µM	0.2 µM	Cell Frequency (%) Th-17 Differentiation IFN-γ^+ [2]: 0.93%; Cell Frequency (%) Th-17 Differentiation IL-17^+ [2]: 1.42%
C[C@@H]1CC[C@@]2(OC1)O[C@H]1C[C@H]3[C@@H]4CC[C@H]5C[C@@H](O)CC[C@]5(C)[C@H]4C[C@@H](O)[C@]3(C)[C@H]1[C@@H]2C [OR-885, 5α,20α, 22α, 25D-SPIROSTAN-3β, 12β-DIOL]	–	blocks the differentiation of TH-17 cells	–	–	–	5.1 µM	EC50 (μM), transcriptional assay of human RORγ (human RORγ): significantly less potent at hRORγ; reversal of antagonist effect on IL-17 release by agonist [1]: partially reversible by OR-12872; Cell Frequency (%) TH-17 Protocol IFN-γ^+ [2]: 1.45%; Cell Frequency (%) TH-17 Protocol IL-17^+ [2]: 0.52%; EC50 [3]: > 10 µM; EC50 (hPPARδ): > 10 µM; EC50 [4]: > 10 µM; IL-22 production in LN cultures [5]: inhibited
O=S(=O)(c1ccccc1)N(CC(F)(F)F)c1ccc(C(O)(C(F)(F)F)C(F)(F)F)cc1 [Compound T0901317, N-(2,2,2-Trifluoro-ethyl)-N-[4-(2,2,2-trifluoro-1-hydroxy-1-trifluoromethyl-ethyl)-phenyl]-benzenesulfonamide, reference compound]	–	–	> 10 µM	> 10 µM	> 10 µM	–	–
COc1c(C=NNc2nc(N3CCCCC3)nc(N3CCCCC3)n2)cccc1[N+](=O)[O-] [OR-2161, N-(4,6-Di-piperidin-1-yl-[1,3,5]triazin-2-yl)-N′-(2-methoxy-3-nitro-benzylidene)-hydrazine]	–	–	> 10 µM	> 10 µM	> 10 µM	1 µM	–
